Results reported in patent US5698551A, “Heterocyclic compounds” (Novo Nordisk A/S, priority 1995, dated 1997).

system: NMRI female mice; experiment: Inhibition of formalin induced pain response in mice; type: in vivo; conditions: at 0.1 mg/kg, 1% formalin into left hind paw
Method: Formalin induced pain or paw oedema
Values for in vivo inhibition of formalin induced pain or oedema for the compounds of the present invention were assessed in mice essentially by the method of Wheeler-Aceto and Cowan (Agents Action 1991, 34, 265-269).
About 20 g NMRI female mice were injected […] 1% formalin into the left hind paw. The animals were then placed on a heated (31° C.) table, and the pain response was scored. After 1 h they were killed and bled. Left and right hind paws were removed and the weight difference between the paws was used as indication of the oedema response of the formalin injected paw.
Values for inhibition of formalin induced pain response for some representative compounds are recorded in table 1.

Row | Structure (SMILES) | % Pain inhibition (inhibition of formalin induced pain response) [%]
1 | Cl.O=C(O)[C@@H]1CCCN(CCCN2Cc3ccccc3Cc3ccccc32)C1 [Example 3, (R)-1-(3-(6,11-Dihydro-5H-dibenz[b,e]azepin-5-yl)-1-propyl)-3-piperidine-carboxylic acid hydrochloride] | 36
2 | Cl.O=C(O)[C@@H]1CCCN(CCCN2C(=O)c3ccccc3CCc3ccccc32)C1 [Example 2, (R)-1-(3-(6-Oxo-11,12-dihydro-5H-dibenz[b,f]azocin-5-yl)-1-propyl)-3-piperidinecarboxylic acid hydrochloride] | 34
3 | Cl.Cl.O=C(O)[C@@H]1CCCN(CCCN2Cc3ccccc3CCc3ccccc32)C1 [Example 6, (R)-1-(3-(5,6,11,12-Tetrahydro-dibenz[b,f]azocin-5-yl)-1-propyl)-3-piperidinecarboxylic acid dihydrochloride] | 22
4 | Cl.O=C(O)[C@@H]1CCCN(CCCN2C(=O)c3ccccc3Nc3ccccc32)C1 [Example 1, (R)-1-(3-(11-Oxo-10,11-dihydro-5H-dibenzo[b,e][1,4]diazepin-10-yl)-1-propyl)-3-piperidinecarboxylic acid hydrochloride] | 13
5 | Cl.O=C(O)[C@@H]1CCCN(CCCn2c(=O)c3ccccc3c(=O)c3ccccc32)C1 [Example 4, (R)-1-(3-(6,11-Dioxo-6,11-dihydro-5H-dibenz[b,e]azepin-5-yl)-1-propyl)-3-piperidine-carboxylic acid hydrochloride] | 28
